The assay addresses T1, His-tagged full-length RSK2 (RPS6KA3) (Homo sapiens, UniProt P51812).
T1 construct: His-tagged full-length RSK2 (RPS6KA3, Invitrogen PV3323); His; purchased Invitrogen PV3323
Put plainly: RSK2 Omnia Assay for compound IC50 determination. The format is biochemical. As to conditions: ATP 15 μM, n=2, read-out: Mean RSK2 Biochem IC50. The method, boiled down: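 Continuous fluorescence assay (ex 360/em 485 nm) of SOX-peptide (Omnia ST Peptide 6, 5 μM) phosphorylation with ATP 15 μM (Km 16.3 μM). Enzyme was […], in pH 7.5 HEPES/MgCl2 buffer with 1% DMSO. IC50 came from 11-point threefold dilutions ([…]) by four-parameter fit of initial slopes, in duplicate; Ki by Cheng-Prusoff assuming competitive inhibition.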

The structures appear in SMILES notation.

T1 sequence (P51812 whole entry): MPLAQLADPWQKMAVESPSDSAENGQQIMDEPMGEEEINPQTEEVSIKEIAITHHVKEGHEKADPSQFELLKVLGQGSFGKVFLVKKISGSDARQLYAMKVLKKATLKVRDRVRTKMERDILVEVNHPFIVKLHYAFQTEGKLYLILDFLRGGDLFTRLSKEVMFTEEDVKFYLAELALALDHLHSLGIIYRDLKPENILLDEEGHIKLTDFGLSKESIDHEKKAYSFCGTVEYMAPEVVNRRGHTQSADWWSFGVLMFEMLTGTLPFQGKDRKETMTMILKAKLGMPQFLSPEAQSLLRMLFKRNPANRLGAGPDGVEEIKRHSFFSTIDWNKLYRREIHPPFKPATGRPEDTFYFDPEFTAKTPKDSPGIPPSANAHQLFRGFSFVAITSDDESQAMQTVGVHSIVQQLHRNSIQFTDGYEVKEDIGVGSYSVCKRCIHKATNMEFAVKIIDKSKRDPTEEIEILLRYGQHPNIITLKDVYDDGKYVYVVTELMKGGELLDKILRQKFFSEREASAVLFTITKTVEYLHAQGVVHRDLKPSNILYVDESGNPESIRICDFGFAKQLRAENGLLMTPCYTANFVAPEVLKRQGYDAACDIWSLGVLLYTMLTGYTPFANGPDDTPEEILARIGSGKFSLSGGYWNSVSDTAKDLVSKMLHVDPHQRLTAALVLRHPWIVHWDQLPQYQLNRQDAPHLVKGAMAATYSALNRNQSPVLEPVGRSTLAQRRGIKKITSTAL

One may read the IC50 as the concentration that inhibits the measured activity by half. Regarding `COc1ccc(N2C(=O)[C@@H](C)N(CCC(C)C)c3nc(Nc4cc(F)c5[nH]ncc5c4)ncc32)cc1OC` [Example 85, (7R)-5-(3,4-dimethoxyphenyl)-2-[(7-fluoro-1H-indazol-5-yl)amino]-7-methyl-8-(3-methylbutyl)-7,8-dihydropteridin-6(5H)-one], the IC50 is at most 100 nM.
For `C[C@@H]1C(=O)N(c2cccc(C#N)c2)c2cnc(Nc3ccc4c(=O)[nH]oc4c3)nc2N1C1CCCCC1` [compound 166, 3-[(7R)-8-cyclohexyl-7-methyl-6-oxo-2-[(3-oxo-2,3-dihydro-1,2-benzoxazol-6-yl)amino]-7,8-dihydropteridin-5(6H)-yl]benzonitrile], the IC50 is at most 100 nM.
The result for `COc1ccc(N2C(=O)[C@@H](C)N(C3CCCCC3)c3nc(Nc4ccc5[nH]ncc5c4)ncc32)cc1` [Example 26, (7R)-8-cyclohexyl-2-(1H-indazol-5-ylamino)-5-(4-methoxyphenyl)-7-methyl-7,8-dihydropteridin-6(5H)-one] reads at most 100 nM; that for `CNC(=O)Cc1ccc(Nc2ncc3c(n2)N(CCC(C)C)C(C)C(=O)N3c2ccccc2)cc1` (stereo not shown) [Example 5, N-methyl-2-(4-{[7-methyl-8-(3-methylbutyl)-6-oxo-5-phenyl-5,6,7,8-tetrahydropteridin-2-yl]amino}phenyl)acetamide], 100 to 1000 nM; that for `C[C@@H]1C(=O)N(c2cccc(C#N)c2)c2cnc(Nc3ccc4[nH]ncc4c3Cl)nc2N1C1CCCCC1` [compound 101, 3-[(7R)-2-[(4-chloro-1H-indazol-5-yl)amino]-8-cyclohexyl-7-methyl-6-oxo-7,8-dihydropteridin-5(6H)-yl]benzonitrile], over 1000 nM.
The result for `C[C@@H]1C(=O)N(c2cccc(C#N)c2)c2cnc(Nc3cc(F)c4[nH]nc(F)c4c3F)nc2N1C1CCCCC1` [compound 146, 3-[(7R)-8-cyclohexyl-7-methyl-6-oxo-2-[(3,4,7-trifluoro-1H-indazol-5-yl)amino]-7,8-dihydropteridin-5(6H)-yl]benzonitrile] reads at most 100 nM; that for `COc1ccc(N2C(=O)[C@@H](C)N(C3CCCCC3)c3nc(Nc4ccc5[nH]ncc5c4)ncc32)cc1C#N` [compound 104, 5-[(7R)-8-cyclohexyl-2-(1H-indazol-5-ylamino)-7-methyl-6-oxo-7,8-dihydropteridin-5(6H)-yl]-2-methoxybenzonitrile], at most 100 nM.
As to `COc1ccc(N2C(=O)[C@@H](C)N(CCC(C)C)c3nc(Nc4cc(F)c5[nH]ncc5c4)ncc32)cc1C#N` [Example 91, 5-[(7R)-2-[(7-fluoro-1H-indazol-5-yl)amino]-7-methyl-8-(3-methylbutyl)-6-oxo-7,8-dihydropteridin-5(6H)-yl]-2-methoxybenzonitrile], the IC50 was at most 100 nM.
The result for `C[C@@H]1C(=O)N(c2cccc(OC(F)(F)F)c2)c2cnc(Nc3ccc4[nH]ncc4c3)nc2N1C1CCCCC1` [Example 34, (7R)-8-cyclohexyl-2-(1H-indazol-5-ylamino)-7-methyl-5-[3-(trifluoromethoxy)phenyl]-7,8-dihydropteridin-6(5H)-one] reads at most 100 nM; that for `CCOc1ccc(N2C(=O)[C@@H](C)N(C3CCOCC3)c3nc(Nc4ccc5[nH]c(=O)oc5c4)ncc32)cc1C#N` [compound 198, 2-Ethoxy-5-[(7R)-7-methyl-6-oxo-2-[(2-oxo-2,3-dihydro-1,3-benzoxazol-6-yl)amino]-8-(tetrahydro-2H-pyran-4-yl)-7,8-dihydropteridin-5(6H)-yl]benzonitrile], at most 100 nM; that for `N#Cc1cccc(N2C(=O)[C@H]3CCCN3c3nc(Nc4cc(F)c5[nH]ncc5c4)ncc32)c1` [Example 84, 3-[(6aR)-2-[(7-fluoro-1H-indazol-5-yl)amino]-6-oxo-6a,7,8,9-tetrahydropyrrolo[2,1-h]pteridin-5(6H)-yl]benzonitrile], 100 to 1000 nM.
The result for `CC(C)Oc1ccc(N2C(=O)[C@@H](C)N(C3CCOCC3)c3nc(Nc4cc(F)c5[nH]c(=O)oc5c4)ncc32)cc1C#N` [compound 205, 5-[(7R)-2-[(4-fluoro-2-oxo-2,3-dihydro-1,3-benzoxazol-6-yl)amino]-7-methyl-6-oxo-8-(tetrahydro-2H-pyran-4-yl)-7,8-dihydropteridin-5(6H)-yl]-2-(propan-2-yloxy)benzonitrile] reads at most 100 nM.
In the case of `COc1cc(Nc2ncc3c(n2)N(C2CCCCC2)[C@H](C)C(=O)N3c2cccc(C#N)c2)cc2cn[nH]c12` [compound 123, 3-[(7R)-8-cyclohexyl-2-[(7-methoxy-1H-indazol-5-yl)amino]-7-methyl-6-oxo-7,8-dihydropteridin-5(6H)-yl]benzonitrile], the IC50 lay within 100 to 1000 nM.
Turning to `COc1ccc(N2C(=O)[C@@H](C)N(C3CCCCC3)c3nc(Nc4ccc5[nH]ncc5c4)ncc32)cc1F` [Example 55, (7R)-8-cyclohexyl-5-(3-fluoro-4-methoxyphenyl)-2-(1H-indazol-5-ylamino)-7-methyl-7,8-dihydropteridin-6(5H)-one], the IC50 was at most 100 nM.
Under `C[C@@H]1C(=O)N(c2cccc(F)c2)c2cnc(Nc3cc(F)c4[nH]ncc4c3)nc2N1C1CCCCC1` [compound 137, (7R)-8-cyclohexyl-2-[(7-fluoro-1H-indazol-5-yl)amino]-5-(3-fluorophenyl)-7-methyl-7,8-dihydropteridin-6(5H)-one] stands at most 100 nM.
Consider `C[C@@H]1C(=O)N(c2cccc(C#N)c2)c2cnc(Nc3cc(F)c4[nH]ncc4c3F)nc2N1C1CCCCC1` [compound 130, 3-[(7R)-8-cyclohexyl-2-[(4,7-difluoro-1H-indazol-5-yl)amino]-7-methyl-6-oxo-7,8-dihydropteridin-5(6H)-yl]benzonitrile], for which the IC50 was at most 100 nM.
The result for `CCOc1ccc(N2C(=O)[C@@H](C)N([C@H]3CC[C@H](C)CC3)c3nc(Nc4ccc5[nH]c(=O)oc5c4)ncc32)cc1C#N` [compound 247, 2-Ethoxy-5-[(7R)-7-methyl-8-(trans-4-methylcyclohexyl)-6-oxo-2-[(2-oxo-2,3-dihydro-1,3-benzoxazol-6-yl)amino]-7,8-dihydropteridin-5(6H)-yl]benzonitrile] reads at most 100 nM; that for `COC(=O)c1cc(N2C(=O)[C@@H](C)N(C3CCCCC3)c3nc(Nc4ccc5[nH]ncc5c4)ncc32)cs1` [compound 177, methyl 4-[(7R)-8-cyclohexyl-2-(1H-indazol-5-ylamino)-7-methyl-6-oxo-7,8-dihydropteridin-5(6H)-yl]thiophene-2-carboxylate], at most 100 nM; that for `C[C@@H]1C(=O)N(c2cccc([S+](C)[O-])c2)c2cnc(Nc3ccc4[nH]ncc4c3)nc2N1C1CCCCC1` (stereo partly drawn) [compound 114, (7R)-8-cyclohexyl-2-(1H-indazol-5-ylamino)-7-methyl-5-[3-(methylsulfinyl)phenyl]-7,8-dihydropteridin-6(5H)-one], at most 100 nM.
Take `COc1cccc(N2c3nc(Nc4cc(F)c5[nH]ncc5c4)ncc3N(c3cccc(C#N)c3)C(=O)[C@H]2C)c1` [compound 181, 3-[(7R)-2-[(7-fluoro-1H-indazol-5-yl)amino]-8-(3-methoxyphenyl)-7-methyl-6-oxo-7,8-dihydropteridin-5(6H)-yl]benzonitrile]: the IC50 was at most 100 nM.
With `C[C@@H]1C(=O)N(c2cccc(C#N)c2)c2cnc(Nc3ccc4[nH]ncc4c3)nc2N1C1CCCC1` [Example 69, 3-[(7R)-8-cyclopentyl-2-(1H-indazol-5-ylamino)-7-methyl-6-oxo-7,8-dihydropteridin-5(6H)-yl]benzonitrile], the IC50 is at most 100 nM.
The result for `C[C@@H]1C(=O)N(c2cccc(C#N)c2)c2cnc(Nc3ccc4[nH]ncc4c3)nc2N1C1CCOCC1` [compound 184, 3-[(7R)-2-(1H-indazol-5-ylamino)-7-methyl-6-oxo-8-(tetrahydro-2H-pyran-4-yl)-7,8-dihydropteridin-5(6H)-yl]benzonitrile] reads at most 100 nM; that for `COc1ccc(N2C(=O)[C@@H](C)N(C3CCCCC3)c3nc(NCc4cn[nH]c4)ncc32)cc1OC` [compound 163], over 1000 nM.
In the case of `C[C@@H]1C(=O)N(c2ccc3c(c2)OCO3)c2cnc(Nc3ccc4[nH]ncc4c3)nc2N1C1CCCCC1` [Example 39, (7R)-5-(1,3-benzodioxol-5-yl)-8-cyclohexyl-2-(1H-indazol-5-ylamino)-7-methyl-7,8-dihydropteridin-6(5H)-one], the IC50 was at most 100 nM.
Regarding `C[C@@H]1C(=O)N(c2cccc(C#N)c2)c2cnc(Nc3cc(F)c(O)c(F)c3)nc2N1C1CCOCC1` [compound 194, 3-[(7R)-2-[(3,5-difluoro-4-hydroxyphenyl)amino]-7-methyl-6-oxo-8-(tetrahydro-2H-pyran-4-yl)-7,8-dihydropteridin-5(6H)-yl]benzonitrile], the IC50 was at most 100 nM.
Under `COc1ccc(N2C(=O)[C@@H](C)N(C3CCOCC3)c3nc(Nc4cc(F)c5[nH]ncc5c4)ncc32)cc1C#N` [compound 190, 5-[(7R)-2-[(7-fluoro-1H-indazol-5-yl)amino]-7-methyl-6-oxo-8-(tetrahydro-2H-pyran-4-yl)-7,8-dihydropteridin-5(6H)-yl]-2-methoxybenzonitrile] stands at most 100 nM.
Under `COc1ccc(N2C(=O)[C@@H](C)N(C3CCCCC3)c3nc(Nc4ccc5[nH]ncc5c4)ncc32)cc1OC` [compound 111, (7R)-8-cyclohexyl-5-(3,4-dimethoxyphenyl)-2-(1H-indazol-5-ylamino)-7-methyl-7,8-dihydropteridin-6(5H)-one] stands at most 100 nM; under `CC[C@@H]1C(=O)N(c2cccc(C#N)c2)c2cnc(Nc3cc(F)c4[nH]ncc4c3)nc2N1C1CCCCC1` [compound 287, 3-[(7R)-8-cyclohexyl-7-ethyl-2-[(7-fluoro-1H-indazol-5-yl)amino]-6-oxo-7,8-dihydropteridin-5(6H)-yl]benzonitrile], at most 100 nM.

(Values after patent publication US9351974B2, “Substituted pteridinones for the treatment of cancer” (OSI Pharmaceuticals, LLC, priority 2011, dated 2016).)
